Reference: ChEMBL document CHEMBL1201862, “PubChem BioAssay data set” (2004)
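Each compound was tested at five concentrations against cells in 96-well plates for 48 hours. At the GI50, growth is halved.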 Activity calls are given as the source filed them. Rule as the data show it: active = GI50 up to about 1.1 µM and inactive = higher.

Key:
Assay in all cases: growth of human tumour cells (NCI), 48 h
786-0 = tested on: 786-0
A549 = tested on: A549
HCT-116 = tested on: HCT-116
HCT-15 = tested on: HCT-15
HT-29 = tested on: HT-29
MCF7 = tested on: MCF7
RXF 393 = tested on: RXF 393
SF-295 = tested on: SF-295
SK-MEL-28 = tested on: SK-MEL-28
SK-MEL-2 = tested on: SK-MEL-2
SK-OV-3 = tested on: SK-OV-3
SN12C = tested on: SN12C
SNB-19 = tested on: SNB-19
T47D = tested on: T47D
TK-10 = tested on: TK-10
U-251 = tested on: U-251
OVCAR-8 = tested on: OVCAR-8

Measured: GI50

Cc1cc2c(cc1Cl)SC(NS(=O)(=O)c1ccc(Cl)cc1)=NS2(=O)=O
inactive: 786-0 > 100 µM | A549 > 100 µM | HCT-116 35.4 µM | HT-29 47.4 µM | MCF7 56.8 µM | RXF 393 13.6 µM | SF-295 23 µM | SK-MEL-28 > 100 µM | SK-MEL-2 54 µM | SK-OV-3 > 100 µM | SN12C > 100 µM | SNB-19 65.6 µM | T47D > 100 µM | TK-10 30.3 µM | U-251 > 100 µM
> 100 µM: HCT-15

C1=CC2C=CC(C=C1)P2c1ccccc1 (configuration not stated)
inactive: 786-0 > 100 µM | A549 > 100 µM | HCT-116 > 100 µM | HT-29 > 100 µM | MCF7 > 100 µM | OVCAR-8 > 100 µM | RXF 393 > 100 µM | SF-295 > 100 µM | SK-MEL-28 > 100 µM | SK-MEL-2 > 100 µM | SK-OV-3 > 100 µM | SN12C > 100 µM | SNB-19 > 100 µM | T47D > 100 µM | TK-10 > 100 µM | U-251 > 100 µM
> 100 µM: HCT-15

Oc1ccccc1/C=N/Nc1nc(N/N=C/c2ccccc2O)nc(N/N=C/c2ccccc2O)n1
13.3 µM: HCT-15
inactive: 786-0 40.2 µM | A549 > 100 µM | HCT-116 42.2 µM | HT-29 69.7 µM | MCF7 8.63 µM | OVCAR-8 > 100 µM | RXF 393 87.1 µM | SF-295 86.1 µM | SK-MEL-28 > 100 µM | SK-MEL-2 43.6 µM | SK-OV-3 71.9 µM | SN12C > 100 µM | SNB-19 > 100 µM | T47D 47.9 µM | TK-10 > 100 µM | U-251 47.1 µM

Cc1ccc(C2=C(C#N)C(=O)N3CCN=C3S2)cc1
> 100 µM: HCT-15
inactive: 786-0 > 100 µM | A549 > 100 µM | HCT-116 > 100 µM | HT-29 57.1 µM | MCF7 > 100 µM | OVCAR-8 > 100 µM | RXF 393 > 100 µM | SF-295 > 100 µM | SK-MEL-28 > 100 µM | SK-MEL-2 > 100 µM | SK-OV-3 > 100 µM | SN12C > 100 µM | SNB-19 70.3 µM | T47D > 100 µM | TK-10 > 100 µM | U-251 > 100 µM

CCCCCCc1nn2c(-c3ccncc3)nnc2s1
inactive: 786-0 > 10 µM | A549 > 10 µM | HCT-116 > 10 µM | HT-29 > 10 µM | MCF7 > 10 µM | OVCAR-8 > 10 µM | RXF 393 > 10 µM | SF-295 > 10 µM | SK-MEL-28 > 10 µM | SK-MEL-2 > 10 µM | SK-OV-3 > 10 µM | SN12C > 10 µM | SNB-19 > 10 µM | T47D > 10 µM | TK-10 > 10 µM | U-251 > 10 µM
> 10 µM: HCT-15

OC[C@H]1N[C@H](CO)[C@@H](O)[C@H]1O
inactive: 786-0 > 100 µM | A549 > 100 µM | HCT-116 > 100 µM | HT-29 > 100 µM | MCF7 > 100 µM | OVCAR-8 > 100 µM | RXF 393 > 100 µM | SF-295 > 100 µM | SK-MEL-28 > 100 µM | SK-MEL-2 > 100 µM | SK-OV-3 > 100 µM | SN12C > 100 µM | SNB-19 > 100 µM | T47D > 100 µM | TK-10 > 100 µM | U-251 > 100 µM
> 100 µM: HCT-15

O=C(/C(=C/c1cccs1)c1ccccc1)c1ccccc1
> 100 µM: HCT-15
inactive: 786-0 26.2 µM | A549 54.2 µM | HCT-116 > 100 µM | HT-29 53.2 µM | MCF7 > 100 µM | OVCAR-8 > 100 µM | RXF 393 4.99 µM | SF-295 > 100 µM | SK-MEL-28 > 100 µM | SK-MEL-2 40.2 µM | SK-OV-3 > 100 µM | SN12C 82.2 µM | SNB-19 30.5 µM | T47D > 100 µM | TK-10 > 100 µM | U-251 77.1 µM

COc1cc(CNc2nc3cc(C(F)(F)F)ccc3nc2C(=O)O)cc(OC)c1OC
29.6 µM: HCT-15
inactive: 786-0 19.3 µM | A549 21.4 µM | HCT-116 15.6 µM | MCF7 20.1 µM | OVCAR-8 34.4 µM | RXF 393 23.8 µM | SF-295 20.5 µM | SK-MEL-28 22.5 µM | SK-MEL-2 19.9 µM | SK-OV-3 28.4 µM | SN12C 15.4 µM | SNB-19 21.6 µM | T47D 21.1 µM | TK-10 13.1 µM | U-251 15.7 µM

Oc1ccc2c(c1)CCc1c-2n(CCN2CCOCC2)c2ccc(O)cc12
36.1 µM: HCT-15
inactive: 786-0 43.5 µM | HCT-116 41.3 µM | MCF7 23.5 µM | OVCAR-8 20.2 µM | RXF 393 30.5 µM | SF-295 47.2 µM | SK-MEL-28 29.3 µM | SK-MEL-2 27.1 µM | SK-OV-3 46.3 µM | SN12C > 100 µM | SNB-19 25.1 µM | T47D 31.1 µM | TK-10 36.7 µM | U-251 35.9 µM

C=C1CC/C=C(/C(=O)O)CC[C@H]2[C@@H]1CC2(C)C
inactive: 786-0 > 100 µM | A549 > 100 µM | HCT-116 > 100 µM | HT-29 > 100 µM | MCF7 > 100 µM | RXF 393 > 100 µM | SF-295 > 100 µM | SK-MEL-28 > 100 µM | SK-MEL-2 > 100 µM | SK-OV-3 > 100 µM | SN12C > 100 µM | SNB-19 > 100 µM | T47D > 100 µM | TK-10 > 100 µM | U-251 > 100 µM
> 100 µM: HCT-15

Nc1nc(=O)n(C2OC(CO)C(O)C2O)c2ncc(-c3ccc(-c4ccccc4)cc3)nc12 (configuration not stated)
inactive: 786-0 28.4 µM | A549 > 100 µM | HCT-116 > 100 µM | HT-29 > 100 µM | MCF7 31.3 µM | OVCAR-8 > 100 µM | RXF 393 > 100 µM | SF-295 > 100 µM | SK-MEL-2 > 100 µM | SK-OV-3 > 100 µM | SN12C > 100 µM | SNB-19 82.2 µM | T47D > 100 µM | TK-10 > 100 µM | U-251 31.3 µM
> 100 µM: HCT-15

NC(Cc1ccc(S(=O)(=O)O)cc1)C(=O)NC(CCCCNC(=O)NCCCCC(NC(=O)C(N)Cc1ccc(S(=O)(=O)O)cc1)C(=O)NC(Cc1ccc(S(=O)(=O)O)cc1)C(=O)O)C(=O)NC(Cc1ccc(S(=O)(=O)O)cc1)C(=O)O (configuration not stated)
inactive: 786-0 > 100 µM | A549 > 100 µM | HCT-116 > 100 µM | HT-29 > 100 µM | MCF7 69.5 µM | OVCAR-8 > 100 µM | RXF 393 > 100 µM | SF-295 > 100 µM | SK-MEL-28 > 100 µM | SK-MEL-2 > 100 µM | SK-OV-3 > 100 µM | SN12C > 100 µM | T47D > 100 µM | TK-10 > 100 µM | U-251 > 100 µM
> 100 µM: HCT-15
